Test results published in the NIST ThermoML archive (doi:10.1016/j.jct.2009.03.014).
Values joined by “and” are separate entries in the source; they are usually repeats but may differ in a detail not shown here. Equal entries are not always repeated.

Columns and labels:
[1] = molar enthalpy of vaporization or sublimation; conditions: 298.15 K, Crystal
[2] = Crystal, Calculated from knudsen effusion weight loss

O=[N+]([O-])c1c(Cl)cc(Cl)cc1Cl [1,3,5-trichloro-2-nitrobenzene]
Conditions | molar enthalpy, Drop-Microcalorimetry [kcal/mol] | vapor or sublimation pressure, 287.13 K | vapor or sublimation pressure, 289.15 K | vapor or sublimation pressure, 291.14 K | vapor or sublimation pressure, 293.13 K | vapor or sublimation pressure, 295.15 K | vapor or sublimation pressure, 297.15 K | vapor or sublimation pressure, 299.14 K | vapor or sublimation pressure, 301.13 K | vapor or sublimation pressure, 303.14 K
[1] | 20.1 | – | – | – | – | – | – | – | – | –
[2] | – | 0.000143 kPa and 0.000137 kPa and 0.000136 kPa | 0.000183 kPa and 0.000176 kPa and 0.000174 kPa | 0.000231 kPa and 0.000224 kPa and 0.000217 kPa | 0.000295 kPa and 0.000293 kPa and 0.000301 kPa | 0.000387 kPa and 0.000371 kPa and 0.000369 kPa | 0.000487 kPa and 0.000435 kPa and 0.000445 kPa | 0.000651 kPa and 0.000582 kPa and 0.000577 kPa | 0.0008 kPa and 0.000723 kPa and 0.000725 kPa | 0.000992 kPa and 0.000924 kPa and 0.000927 kPa

O=[N+]([O-])c1c(Cl)c(Cl)cc(Cl)c1Cl [2,3,5,6-tetrachloronitrobenzene]
Conditions | molar enthalpy [kcal/mol]
[1], Drop Microcalorimetry | 21.8

O=[N+]([O-])c1c(Cl)c(Cl)c(Cl)c(Cl)c1Cl [pentachloronitrobenzene]
Conditions | molar enthalpy [kcal/mol] | vapor or sublimation pressure
[1], Drop Microcalorimetry | 23 | –
[2], 317.11 K | – | 0.000102 kPa and 0.000101 kPa
[2], 319.18 K | – | 0.000129 kPa and 0.000127 kPa and 0.000124 kPa
[2], 321.2 K | – | 0.00015 kPa and 0.000155 kPa and 0.000154 kPa
[2], 323.11 K | – | 0.000197 kPa and 0.000196 kPa and 0.000199 kPa
[2], 325.18 K | – | 0.000246 kPa and 0.000245 kPa and 0.000241 kPa
[2], 327.2 K | – | 0.000289 kPa and 0.000296 kPa and 0.000292 kPa
[2], 329.11 K | – | 0.000372 kPa and 0.000367 kPa and 0.000366 kPa
[2], 331.17 K | – | 0.000462 kPa and 0.000453 kPa and 0.000447 kPa
[2], 333.2 K | – | 0.000531 kPa and 0.000549 kPa and 0.00054 kPa
[2], 335.11 K | – | 0.000692 kPa and 0.000673 kPa and 0.000671 kPa
[2], 337.18 K | – | 0.000844 kPa and 0.000833 kPa and 0.000818 kPa
[2], 339.2 K | – | 0.000971 kPa and 0.001009 kPa and 0.000993 kPa
